Test results taken from ChEMBL document CHEMBL1201862, “PubChem BioAssay data set” (2004).
Calls of active or inactive are those of the source.

Tests used:
Vero [1] = experiment: cells; assay type: functional; conditions: Chlorocebus sabaeus
Vero [2] = experiment: cells; assay type: functional, cell-based; conditions: Chlorocebus sabaeus
[3] = target: Intestinal-type alkaline phosphatase (Mus musculus, UniProt P24822); experiment: PubChem AID 488785; assay type: functional
[4] = target: Intestinal-type alkaline phosphatase (Homo sapiens, UniProt P09923); experiment: inhibition of human intestinal alkaline phosphatase – biochemical, dose response (AID 488876); assay type: functional
Chain of Intestinal-type alkaline phosphatase (Homo sapiens, UniProt P09923) (P09923 whole entry): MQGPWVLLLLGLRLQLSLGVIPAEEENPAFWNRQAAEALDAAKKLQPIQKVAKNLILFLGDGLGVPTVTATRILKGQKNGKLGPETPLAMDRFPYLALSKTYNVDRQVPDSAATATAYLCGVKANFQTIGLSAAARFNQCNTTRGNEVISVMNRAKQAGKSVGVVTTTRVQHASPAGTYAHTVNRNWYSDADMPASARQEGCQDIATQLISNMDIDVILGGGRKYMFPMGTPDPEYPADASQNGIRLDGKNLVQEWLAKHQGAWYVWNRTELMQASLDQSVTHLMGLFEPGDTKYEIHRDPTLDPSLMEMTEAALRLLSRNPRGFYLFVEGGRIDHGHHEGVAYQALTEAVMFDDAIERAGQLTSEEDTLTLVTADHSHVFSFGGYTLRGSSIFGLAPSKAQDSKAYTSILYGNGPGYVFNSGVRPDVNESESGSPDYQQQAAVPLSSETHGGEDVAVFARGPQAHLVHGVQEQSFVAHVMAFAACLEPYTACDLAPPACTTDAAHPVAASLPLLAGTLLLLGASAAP

[5] = target: T1, Alkaline phosphatase, tissue-nonspecific isozyme (Homo sapiens, UniProt P05186); experiment: TNAP enzyme inhibition by screening hits, dose response, selectivity assay for mouse IAP inhibitor project, biochemical, human TNAP, uHTS hits (AID 488906); assay type: functional
T1 sequence (P05186 whole entry): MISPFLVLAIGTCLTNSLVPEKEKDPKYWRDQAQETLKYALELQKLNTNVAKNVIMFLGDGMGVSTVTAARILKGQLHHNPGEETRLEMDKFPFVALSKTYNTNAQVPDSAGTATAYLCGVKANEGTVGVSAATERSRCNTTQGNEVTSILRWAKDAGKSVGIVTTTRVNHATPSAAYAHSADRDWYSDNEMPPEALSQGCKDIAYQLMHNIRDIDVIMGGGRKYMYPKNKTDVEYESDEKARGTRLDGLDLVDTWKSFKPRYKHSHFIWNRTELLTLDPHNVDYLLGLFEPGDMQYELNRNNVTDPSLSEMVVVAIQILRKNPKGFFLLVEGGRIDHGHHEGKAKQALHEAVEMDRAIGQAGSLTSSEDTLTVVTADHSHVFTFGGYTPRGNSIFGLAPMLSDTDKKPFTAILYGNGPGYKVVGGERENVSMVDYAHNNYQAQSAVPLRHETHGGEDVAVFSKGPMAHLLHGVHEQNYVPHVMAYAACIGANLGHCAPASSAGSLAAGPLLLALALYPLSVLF

H9c2 = experiment: cells; assay type: functional, cell-based; conditions: Rattus norvegicus, H9c2, Myocardium;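 also: confirmatory concentration-response retest of ultra-high-throughput screening hits for modulation of myocardial damage; cell death induced by hydrogen peroxide oxidative stress; compound pretreatment for 60 min then peroxide exposure for 2 h; potency is for protecting the cells against peroxide damage rather than for killing them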
[6] = target: T2, Probable nicotinate-nucleotide adenylyltransferase (Staphylococcus aureus (strain N315), UniProt P65502); assay type: functional, Staphylococcus aureus subsp. aureus N315;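 as to IC50 Mean: confirmatory dose-response retesting of NadD inhibitor hits first found in an ultra-high-throughput screen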
T2 sequence (P65502 whole entry): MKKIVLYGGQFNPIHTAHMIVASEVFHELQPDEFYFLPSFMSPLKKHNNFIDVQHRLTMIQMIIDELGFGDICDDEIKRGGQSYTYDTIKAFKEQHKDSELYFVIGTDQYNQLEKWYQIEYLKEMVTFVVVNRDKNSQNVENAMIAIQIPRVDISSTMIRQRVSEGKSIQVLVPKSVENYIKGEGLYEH

[7] = target: T2, Probable nicotinate-nucleotide adenylyltransferase; assay type: functional, Staphylococcus aureus subsp. aureus N315; conditions: read-out: IC50_Mean
[8] = target: T3, E3 ubiquitin-protein ligase XIAP (Homo sapiens, UniProt P98170); experiment: small molecules displacing peptide from XIAP – biochemical, IAP family, fluorescence polarization (AID 1018); assay type: functional
T3 sequence (P98170 whole entry): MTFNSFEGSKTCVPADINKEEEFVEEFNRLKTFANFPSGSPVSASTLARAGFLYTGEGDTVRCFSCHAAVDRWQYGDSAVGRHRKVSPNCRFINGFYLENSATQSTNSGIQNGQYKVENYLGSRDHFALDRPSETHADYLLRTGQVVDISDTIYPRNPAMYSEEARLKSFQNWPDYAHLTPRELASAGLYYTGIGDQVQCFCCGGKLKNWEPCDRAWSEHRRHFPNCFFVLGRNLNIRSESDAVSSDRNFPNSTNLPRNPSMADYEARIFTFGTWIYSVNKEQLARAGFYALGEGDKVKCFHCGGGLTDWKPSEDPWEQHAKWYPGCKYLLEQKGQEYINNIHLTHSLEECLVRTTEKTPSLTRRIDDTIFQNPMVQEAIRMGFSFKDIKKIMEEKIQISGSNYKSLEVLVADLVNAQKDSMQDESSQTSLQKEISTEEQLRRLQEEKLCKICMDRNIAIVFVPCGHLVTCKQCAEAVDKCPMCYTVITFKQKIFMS

[9] = target: T3, E3 ubiquitin-protein ligase XIAP; experiment: Counter Screen using XIAP-Bir3 for Chemical Antagonists of Bir1/2 domains of IAP-family anti-apoptotic proteins. [Related pubchem assays (depositor defined):AID1018, AID1449, AID1514, AID1638, AID1749, AID1750, AID488957, AID488963]
[10] = target: DNA dC->dU-editing enzyme APOBEC-3A (Homo sapiens, UniProt P31941); experiment: Dose Response confirmation of small molecule APOBEC3A DNA Deaminase Inhibitors via a fluorescence-based single-stranded DNA deaminase assay. [Related pubchem assays (depositor defined):AID493011, AID493024]; assay type: functional
Chain of DNA dC->dU-editing enzyme APOBEC-3A (P31941 whole entry): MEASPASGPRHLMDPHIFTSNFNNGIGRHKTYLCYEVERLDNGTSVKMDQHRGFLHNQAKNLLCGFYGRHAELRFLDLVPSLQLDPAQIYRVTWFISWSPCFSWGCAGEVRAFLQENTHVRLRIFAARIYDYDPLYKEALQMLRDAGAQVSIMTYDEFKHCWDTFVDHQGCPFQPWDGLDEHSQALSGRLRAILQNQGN

[11] = target: DNA dC->dU-editing enzyme APOBEC-3G (Homo sapiens, UniProt Q9HC16); assay type: functional;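 also: Dose-response counterscreen measuring inhibition of APOBEC3G DNA deaminase activity, run while confirming APOBEC3A inhibitors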
Chain of DNA dC->dU-editing enzyme APOBEC-3G (Q9HC16 whole entry): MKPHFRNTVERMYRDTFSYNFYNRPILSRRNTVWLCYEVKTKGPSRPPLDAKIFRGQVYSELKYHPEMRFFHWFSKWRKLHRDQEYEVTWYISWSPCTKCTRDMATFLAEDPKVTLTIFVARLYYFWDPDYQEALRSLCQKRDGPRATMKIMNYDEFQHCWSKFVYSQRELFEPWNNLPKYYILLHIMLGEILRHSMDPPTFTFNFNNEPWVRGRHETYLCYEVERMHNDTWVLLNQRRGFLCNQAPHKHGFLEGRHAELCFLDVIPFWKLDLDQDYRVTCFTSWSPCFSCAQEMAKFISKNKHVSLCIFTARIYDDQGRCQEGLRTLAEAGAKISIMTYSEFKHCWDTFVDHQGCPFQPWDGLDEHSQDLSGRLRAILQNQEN

Cytochrome P450 2C19 = Cytochrome P450 2C19 (Homo sapiens, UniProt P33261); experiment: Cytochrome panel assay with activity outcomes. Panel member name: p450-cyp2c19 Compounds with AC50 equal or less than 10 uM are considered active; assay type: functional; conditions: read-out: AC50
Chain of Cytochrome P450 2C19 (P33261 whole entry): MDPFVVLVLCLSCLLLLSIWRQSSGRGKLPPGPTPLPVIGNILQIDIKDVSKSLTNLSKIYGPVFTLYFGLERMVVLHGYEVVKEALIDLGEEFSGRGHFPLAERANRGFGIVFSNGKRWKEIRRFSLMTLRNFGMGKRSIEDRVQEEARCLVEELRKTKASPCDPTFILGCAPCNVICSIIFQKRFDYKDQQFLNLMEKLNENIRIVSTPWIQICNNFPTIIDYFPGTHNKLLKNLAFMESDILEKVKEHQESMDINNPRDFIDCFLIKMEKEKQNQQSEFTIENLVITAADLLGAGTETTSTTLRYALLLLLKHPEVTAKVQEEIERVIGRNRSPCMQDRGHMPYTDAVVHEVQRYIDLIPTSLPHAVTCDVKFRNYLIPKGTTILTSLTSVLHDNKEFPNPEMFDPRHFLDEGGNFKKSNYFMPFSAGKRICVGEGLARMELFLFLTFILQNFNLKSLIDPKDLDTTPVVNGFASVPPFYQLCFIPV

[12] = target: Peroxisome proliferator-activated receptor gamma/Nuclear receptor coactivator 2 (Homo sapiens, UniProt P37231); experiment: (§1) TR-FRET dose response biochemical High Throughput Screening assay for agonists of the steroid receptor coactivator 2 (SRC-2) recruitment by the peroxisome proliferator-activated receptor gamma (PPAR gamma): non-selective agonists. [Related pubchem assays: 1297, 1032 ]; assay type: functional
[13] = target: Peroxisome proliferator-activated receptor gamma/Nuclear receptor coactivator 3 (Homo sapiens, UniProt P37231); experiment: as §1, with “3 (SRC-3)” for “2 (SRC-2)”, “1301 (Confirmation screen.), 1048 (Primary screen.)]” for “1297, 1032 ]”; assay type: functional
Chain of Peroxisome proliferator-activated receptor gamma/Nuclear receptor coactivator 3 (P37231 whole entry): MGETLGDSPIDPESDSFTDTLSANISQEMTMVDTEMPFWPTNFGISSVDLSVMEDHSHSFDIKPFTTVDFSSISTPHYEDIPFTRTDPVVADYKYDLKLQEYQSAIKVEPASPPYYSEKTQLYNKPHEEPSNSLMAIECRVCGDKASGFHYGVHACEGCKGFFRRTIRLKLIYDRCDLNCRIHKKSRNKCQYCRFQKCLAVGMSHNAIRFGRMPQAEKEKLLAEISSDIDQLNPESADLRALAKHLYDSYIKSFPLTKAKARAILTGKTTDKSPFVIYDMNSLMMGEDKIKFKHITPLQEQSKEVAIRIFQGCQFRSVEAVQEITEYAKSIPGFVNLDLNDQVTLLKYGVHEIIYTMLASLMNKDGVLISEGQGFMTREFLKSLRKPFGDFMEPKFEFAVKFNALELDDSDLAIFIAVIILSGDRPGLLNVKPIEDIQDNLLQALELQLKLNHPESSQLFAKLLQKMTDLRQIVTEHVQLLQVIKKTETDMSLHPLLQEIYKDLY
Chain of Peroxisome proliferator-activated receptor gamma/Nuclear receptor coactivator 3 (Q9Y6Q9 whole entry, further chain): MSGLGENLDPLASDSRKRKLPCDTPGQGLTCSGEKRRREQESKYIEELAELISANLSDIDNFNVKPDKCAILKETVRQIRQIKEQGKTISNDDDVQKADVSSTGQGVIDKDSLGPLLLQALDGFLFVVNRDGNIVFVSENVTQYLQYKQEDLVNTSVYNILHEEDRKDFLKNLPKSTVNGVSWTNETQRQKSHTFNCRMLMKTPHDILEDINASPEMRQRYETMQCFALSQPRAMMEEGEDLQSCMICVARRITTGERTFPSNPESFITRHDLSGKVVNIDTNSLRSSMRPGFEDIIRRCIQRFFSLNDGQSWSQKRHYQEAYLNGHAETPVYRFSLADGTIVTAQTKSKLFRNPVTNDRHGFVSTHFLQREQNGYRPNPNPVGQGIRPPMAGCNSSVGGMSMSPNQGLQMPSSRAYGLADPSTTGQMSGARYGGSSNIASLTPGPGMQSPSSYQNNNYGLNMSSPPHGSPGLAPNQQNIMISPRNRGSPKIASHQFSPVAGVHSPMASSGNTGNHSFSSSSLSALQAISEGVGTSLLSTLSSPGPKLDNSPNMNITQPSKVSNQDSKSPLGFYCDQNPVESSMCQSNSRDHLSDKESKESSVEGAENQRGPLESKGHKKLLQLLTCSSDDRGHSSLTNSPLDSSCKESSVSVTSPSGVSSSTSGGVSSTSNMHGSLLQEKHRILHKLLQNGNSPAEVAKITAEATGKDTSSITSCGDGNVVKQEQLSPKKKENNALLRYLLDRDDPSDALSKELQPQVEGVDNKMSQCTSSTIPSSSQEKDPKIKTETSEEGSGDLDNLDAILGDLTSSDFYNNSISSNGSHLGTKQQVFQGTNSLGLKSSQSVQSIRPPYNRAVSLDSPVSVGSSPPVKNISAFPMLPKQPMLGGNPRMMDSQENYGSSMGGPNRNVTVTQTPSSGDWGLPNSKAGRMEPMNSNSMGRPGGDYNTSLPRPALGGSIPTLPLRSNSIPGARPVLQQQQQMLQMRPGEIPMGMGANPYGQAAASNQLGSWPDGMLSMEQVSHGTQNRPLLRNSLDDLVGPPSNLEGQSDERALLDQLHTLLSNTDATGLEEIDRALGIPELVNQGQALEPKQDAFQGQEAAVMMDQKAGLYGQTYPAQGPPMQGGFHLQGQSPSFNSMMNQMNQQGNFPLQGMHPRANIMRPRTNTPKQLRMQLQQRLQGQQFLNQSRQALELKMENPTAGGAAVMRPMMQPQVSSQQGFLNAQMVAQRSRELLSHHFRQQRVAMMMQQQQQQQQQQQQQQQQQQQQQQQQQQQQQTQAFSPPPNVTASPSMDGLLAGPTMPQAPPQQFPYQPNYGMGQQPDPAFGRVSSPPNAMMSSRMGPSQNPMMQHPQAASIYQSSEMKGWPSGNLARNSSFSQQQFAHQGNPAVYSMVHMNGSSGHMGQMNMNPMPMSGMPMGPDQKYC

[14] = target: Peroxisome proliferator-activated receptor gamma/Nuclear receptor coactivator 1 (Homo sapiens, UniProt P37231); experiment: as §1, with “1 (SRC-1)” for “2 (SRC-2)”, “assays (depositor defined):AID1300, AID1808, AID504735, AID631]” for “assays: 1297, 1032 ]”; assay type: protein assay
Coagulation factor XII = target: T4, Coagulation factor XII (Homo sapiens, UniProt P00748); assay type: functional;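 also: activated factor XIIa alpha cleaving a fluorogenic AMC peptide substrate; inhibitor potency from loss of enzyme activity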
T4 sequence (P00748 whole entry): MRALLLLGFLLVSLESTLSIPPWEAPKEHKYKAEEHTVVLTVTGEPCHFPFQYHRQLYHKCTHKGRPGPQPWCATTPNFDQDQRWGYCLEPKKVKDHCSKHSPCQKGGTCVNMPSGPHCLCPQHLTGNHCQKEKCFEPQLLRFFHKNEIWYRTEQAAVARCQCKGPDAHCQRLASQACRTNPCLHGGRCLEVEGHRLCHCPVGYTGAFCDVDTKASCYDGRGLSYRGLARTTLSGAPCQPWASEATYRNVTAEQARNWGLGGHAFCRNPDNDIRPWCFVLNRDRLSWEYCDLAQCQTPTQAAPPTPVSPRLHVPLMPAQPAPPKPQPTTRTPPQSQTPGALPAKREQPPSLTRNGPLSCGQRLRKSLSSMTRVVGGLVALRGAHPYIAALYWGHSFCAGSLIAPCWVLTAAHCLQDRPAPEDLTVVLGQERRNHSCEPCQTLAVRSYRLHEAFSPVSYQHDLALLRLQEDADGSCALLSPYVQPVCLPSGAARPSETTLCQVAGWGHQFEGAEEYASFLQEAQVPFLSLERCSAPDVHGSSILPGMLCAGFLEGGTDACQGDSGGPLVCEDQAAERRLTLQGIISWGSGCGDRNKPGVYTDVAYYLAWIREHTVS

Protein skinhead-1 = target: T5, Protein skinhead-1 (Caenorhabditis elegans, UniProt P34707); assay type: functional
T5 sequence (P34707 whole entry): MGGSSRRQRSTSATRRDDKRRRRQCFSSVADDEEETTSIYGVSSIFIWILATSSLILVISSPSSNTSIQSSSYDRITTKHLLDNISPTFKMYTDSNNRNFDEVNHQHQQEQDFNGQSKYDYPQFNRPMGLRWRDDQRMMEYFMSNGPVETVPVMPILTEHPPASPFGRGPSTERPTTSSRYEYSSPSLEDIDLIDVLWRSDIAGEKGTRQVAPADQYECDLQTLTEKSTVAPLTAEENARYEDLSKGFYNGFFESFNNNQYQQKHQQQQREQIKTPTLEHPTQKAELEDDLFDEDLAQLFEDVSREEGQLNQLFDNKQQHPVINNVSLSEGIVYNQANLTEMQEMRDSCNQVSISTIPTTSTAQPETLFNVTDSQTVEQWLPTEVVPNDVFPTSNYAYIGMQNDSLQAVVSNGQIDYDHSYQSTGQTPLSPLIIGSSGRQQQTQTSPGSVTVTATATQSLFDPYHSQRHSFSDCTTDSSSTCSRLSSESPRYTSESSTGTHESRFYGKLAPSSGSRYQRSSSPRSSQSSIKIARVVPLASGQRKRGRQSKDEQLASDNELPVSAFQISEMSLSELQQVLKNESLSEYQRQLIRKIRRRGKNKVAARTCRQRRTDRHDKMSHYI

[15] = target: T6, Carboxy-terminal domain RNA polymerase II polypeptide A small phosphatase 1 (Homo sapiens, UniProt Q9GZU7); experiment: CTDSP1 inhibitors, concentration-response, biochemical, absorbance readout, ultra-high-throughput screen actives (AID 540297); assay type: functional
T6 sequence (Q9GZU7 whole entry): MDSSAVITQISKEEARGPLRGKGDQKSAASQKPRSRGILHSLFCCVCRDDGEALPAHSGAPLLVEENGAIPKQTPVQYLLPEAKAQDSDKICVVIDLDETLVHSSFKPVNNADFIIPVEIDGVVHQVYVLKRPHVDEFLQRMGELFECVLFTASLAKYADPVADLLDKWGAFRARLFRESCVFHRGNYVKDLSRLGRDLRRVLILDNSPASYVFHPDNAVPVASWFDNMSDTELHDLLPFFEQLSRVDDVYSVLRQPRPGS

[16] = target: Dual specificity protein phosphatase 3 (Homo sapiens, UniProt P51452); experiment: SAR VHR1 Fluorescent Assay for In Vitro dose response studies Set 2. [Related pubchem assays (depositor defined):AID1654, AID1661, AID1878]; assay type: functional
Chain of Dual specificity protein phosphatase 3 (P51452 whole entry): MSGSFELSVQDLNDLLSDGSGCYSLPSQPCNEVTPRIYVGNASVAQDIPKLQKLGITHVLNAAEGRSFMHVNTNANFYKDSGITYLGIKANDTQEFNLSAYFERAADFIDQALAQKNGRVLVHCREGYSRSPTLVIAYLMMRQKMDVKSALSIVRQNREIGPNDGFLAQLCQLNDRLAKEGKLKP

[17] = target: T7, Tyrosine-protein phosphatase non-receptor type 7 (Homo sapiens, UniProt P35236); experiment: SAR analysis of chemical inhibitors of HePTP using a Fluorescent assay - Set 2. [Related pubchem assays (depositor defined):AID1059, AID1077, AID1661, AID2085, AID521]; assay type: functional
T7 sequence (P35236 whole entry): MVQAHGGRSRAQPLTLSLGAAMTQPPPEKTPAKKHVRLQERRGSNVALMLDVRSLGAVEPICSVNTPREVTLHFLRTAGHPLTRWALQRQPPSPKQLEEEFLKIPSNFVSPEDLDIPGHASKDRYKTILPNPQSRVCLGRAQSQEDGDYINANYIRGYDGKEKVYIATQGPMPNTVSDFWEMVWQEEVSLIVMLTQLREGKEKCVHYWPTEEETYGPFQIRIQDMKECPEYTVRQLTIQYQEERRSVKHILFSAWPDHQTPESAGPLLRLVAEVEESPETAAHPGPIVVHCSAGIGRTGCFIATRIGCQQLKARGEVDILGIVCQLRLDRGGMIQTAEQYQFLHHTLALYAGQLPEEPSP

INS1 = experiment: beta-cell survival under cytokine stress – INS-1E, ATP luminescence, dry powder, dose response (AID 488844); assay type: functional, cell-based; conditions: Rattus norvegicus
Albumin = Albumin (Bos taurus, UniProt P02769); experiment: Counterscreen for inhibitors of T-cell receptor (TCR)-CD3 interaction: Fluorescence-based biochemical high throughput dose response assay to identify inhibitors of T-cell receptor (TCR)-CD3 interaction using a TAMRA-labeled BSA probe.; assay type: functional

Chain of Intestinal-type alkaline phosphatase (Mus musculus, UniProt P24822) (P24822 whole entry): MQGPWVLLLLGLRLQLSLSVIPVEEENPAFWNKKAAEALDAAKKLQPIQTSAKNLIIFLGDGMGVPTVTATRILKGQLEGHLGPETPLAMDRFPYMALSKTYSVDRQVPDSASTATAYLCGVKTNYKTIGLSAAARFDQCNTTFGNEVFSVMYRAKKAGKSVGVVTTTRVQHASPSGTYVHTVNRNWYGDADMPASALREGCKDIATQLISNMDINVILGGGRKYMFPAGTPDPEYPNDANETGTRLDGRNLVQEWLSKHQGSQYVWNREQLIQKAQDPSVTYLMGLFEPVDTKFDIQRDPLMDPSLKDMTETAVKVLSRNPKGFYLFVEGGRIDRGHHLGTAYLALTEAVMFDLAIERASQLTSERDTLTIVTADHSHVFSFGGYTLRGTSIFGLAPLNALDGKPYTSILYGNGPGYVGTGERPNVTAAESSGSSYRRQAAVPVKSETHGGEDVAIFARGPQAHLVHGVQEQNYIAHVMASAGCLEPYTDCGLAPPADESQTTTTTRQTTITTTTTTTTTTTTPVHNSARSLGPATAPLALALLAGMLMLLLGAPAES

CCN(C(=O)CCN1C(=O)/C(=C/c2ccccc2)SC1=S)C1CCS(=O)(=O)C1 (stereo unspecified)
CC50 (Vero [1]): 22.1 µM (active) | IC50 (Vero [2]): > 25 µM (active)

O=C(NNC(=O)c1cc2cc(Br)ccc2oc1=O)c1ccc(O)cc1O
IC50 [3]: 12.9 µM (active) | IC50 [4]: > 100 µM (inactive) | IC50 [5]: > 100 µM (inactive) | IC50 (H9c2): > 79 µM (inactive) | IC50 [6]: 16.3 µM (active) | IC50 [7]: 44.7 µM (active)

COc1ccc(C(=O)N(CN2CCCC2=O)c2ccccc2OC)cc1OC
IC50 [8]: > 100 µM (not active) | IC50 [9]: > 100 µM (inactive)

Cc1ccn(C)c(=N)c1
IC50 [10]: 7.71 µM (active) | IC50 [11]: 7.58 µM (active)

Cn1c(=O)cc(SCC(=O)NCCCN2CCOCC2)c2ccc(Cl)cc21
AC50 (Cytochrome P450 2C19): 10 µM (inconclusive) | EC50 [12]: > 79.4 µM (not active) | EC50 [13]: > 79.4 µM (not active) | EC50 [14]: > 79.4 µM (inactive)

CCn1nc(C)c(CNC(=O)c2cc(COc3ccc(F)cc3Cl)on2)c1C
IC50 (Coagulation factor XII): > 50 µM (inactive)

Clc1ccc(-c2nc3cc(CN4CCCCC4)ccc3o2)cc1
CC50 (Vero [1]): > 25 µM (active) | IC50 (Vero [2]): > 25 µM (active) | IC50 (Protein skinhead-1): 4.15 µM (active)

Clc1ccccc1CN1CCN(CCCc2ccccc2)CC1
IC50 (Coagulation factor XII): > 50 µM (inactive)

Cc1cc(-c2ccccc2)nc2c(Br)c(C(=O)O)nn12
IC50 [15]: 2.44 µM (active) | IC50 [10]: 25.2 µM (active) | IC50 [11]: 37.7 µM (active)

COc1ccc(OC)c(C(=S)NCc2ccc(C(F)(F)F)cc2)c1
IC50 [16]: 48.4 µM (active) | IC50 [17]: 38.4 µM (active)

COc1ccc(S(=O)(=O)N(C)C[C@@H]2Oc3c(NC(=O)c4cc(C)nn4C)cccc3C(=O)N([C@@H](C)CO)C[C@H]2C)cc1
AC50 (INS1): > 260 µM (inactive)

COc1cc(/C=N/NC(=O)c2cc(O)cc(O)c2)ccc1OC(=O)c1ccccc1
IC50 [3]: 4.43 µM (active) | IC50 [4]: 77.1 µM (active) | IC50 [5]: 26.8 µM (active) | IC50 (Albumin): > 94.1 µM (inactive)
